In experiment [1] the target is T1, progesterone receptor (PR) (Oryctolagus cuniculus, UniProt P06186).
T1 construct: from tissue; host or cells: endometrium of estradiol-primed juvenile rabbits, in vivo
T1 sequence (P06186 1-930): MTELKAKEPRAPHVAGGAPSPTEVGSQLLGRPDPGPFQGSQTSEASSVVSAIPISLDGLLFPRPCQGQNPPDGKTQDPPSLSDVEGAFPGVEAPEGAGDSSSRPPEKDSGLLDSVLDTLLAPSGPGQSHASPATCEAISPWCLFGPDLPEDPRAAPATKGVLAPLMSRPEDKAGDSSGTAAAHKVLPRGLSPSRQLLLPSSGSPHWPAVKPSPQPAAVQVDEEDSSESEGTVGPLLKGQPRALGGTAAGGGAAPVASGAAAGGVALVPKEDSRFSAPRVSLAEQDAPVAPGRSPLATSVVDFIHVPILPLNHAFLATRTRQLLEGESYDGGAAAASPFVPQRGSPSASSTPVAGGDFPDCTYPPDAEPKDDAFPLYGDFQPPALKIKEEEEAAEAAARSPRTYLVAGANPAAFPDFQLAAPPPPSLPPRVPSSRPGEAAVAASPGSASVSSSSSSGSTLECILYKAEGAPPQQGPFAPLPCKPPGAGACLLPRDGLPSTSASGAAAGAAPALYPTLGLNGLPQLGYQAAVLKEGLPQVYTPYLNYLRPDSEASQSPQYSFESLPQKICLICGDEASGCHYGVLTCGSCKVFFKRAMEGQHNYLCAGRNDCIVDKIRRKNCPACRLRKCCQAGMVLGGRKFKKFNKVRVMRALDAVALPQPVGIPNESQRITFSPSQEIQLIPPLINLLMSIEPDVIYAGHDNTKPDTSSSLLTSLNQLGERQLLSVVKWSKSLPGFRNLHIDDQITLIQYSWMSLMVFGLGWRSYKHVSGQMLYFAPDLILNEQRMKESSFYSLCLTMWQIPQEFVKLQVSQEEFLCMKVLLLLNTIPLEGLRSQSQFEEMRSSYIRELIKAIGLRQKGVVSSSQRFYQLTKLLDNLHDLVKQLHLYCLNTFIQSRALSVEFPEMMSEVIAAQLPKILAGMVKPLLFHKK
The experiment in a line: McPhail test, PR agonistic properties in estradiol-primed juvenile rabbits. In kind it is in vivo, rabbit. Particulars: for maximum effect, McPhail score: 4 days s.c. treatment, absence of progesterone, 0 = no transformation, 4 = complete transformation. The method, then:
In the classical bioassay, the McPhail test, assessing progestagenic and antiprogestagenic effects in rabbits (Selye H., Textbook of Endocrinology, 1947, pp. 345-346), progesterone produces a maximum McPhail score of 4 (by definition). […] The PR antagonistic and agonistic properties of mesoprogestins were assessed in estrogen-primed rabbits in the McPhail test according to Selye (Textbook of Endocrinology, 1947, pp. 345-346).

Another experiment relates to pregnant guinea pigs. The experiment in a line: Abortifacient (labor inducing) activity in pregnant guinea pigs. In kind it is in vivo, guinea pig. Particulars: for abortifacient activity ED50, guinea pig: treatment day 43-44 of pregnancy, autopsy day 50; for maximal abortion rate: up to 100 mg/kg/day. As for the experimental part: In the guinea pig model which allows a good prediction of the effects in humans with respect to the abortifacient activity (Elger W, Beier S., Chwalisz K, Fähnrich M, Hasan S H, Henderson D, Neef G, Rohde R (1986): Studies on the mechanism of action of progesterone antagonists. J Steroid Biochem 25: 835-845) the mesoprogestins J 867, J 912, J 956, J 1042 lead up to 100 mg/kg/day to a maximal abortion rate of 20%.
(§1) The guinea pig is considered as relevant model of human gestation and parturition (Elger W, Fähnrich M, Beier S, Quing S S, Chwalisz K (1987). Endometrial and myometrial effects of progesterone antagonists in pregnant guinea pigs. Am J Obstet Gynecol 157: 1065-1074; Elger W, Neef G, Beier S, Fähnrich M, Gründel M, Heermann J, Malmendier A, Laurent D, Puri C P, Singh M M, Hasan S H, Becker H (1992). Evaluation of antifertility activities of antigestagens in animal model. In: Puri C P and Van Look P F A (eds), Current Concepts in Fertility Regulation and Reproduction. Wiley Eastern Limited, New Delhi, pp. 303-328; Elger W, Faehnrich M, Beier S, Qing S S, Chwalisz K (1986). Mechanism of action of progesterone antagonists in pregnant guinea pigs. Contraception 6: 47-62; Elger W, Chwalisz K, Faehnrich M, Hasan S H, Laurent D, Beier S, Ottow E, Neef G, Garfield R E (1990). Studies on labor-conditioning and labor-inducing effects of antiprogesterones in animal model. In: Garfield R E (eds), Norwell, pp. 153-175.) The mechanism of abortion of antiprogestins in this species is the initiation of labor and finally the expulsion of the conceptus. Abortifacient effects in the rat during very early pregnancy reflect inhibitory effects on nidation rather than initiation of uterine contractions. Studies in the rat model lead to “overestimation” of the potential of antiprogestins to terminate pregnancy in humans. Conversely, in the guinea pig model, irrespective of the antiprogestin doses, there were high rates of ongoing pregnancies similar to the situation in humans (Elger et al., Current Concepts in Fertility Regulation and Reproduction cited above). Furthermore, in both humans and guinea pigs, there is a strong synergism between antiprogestins and prostaglandins with respect the induction of labor (see the articles cited above and Elger W, Beier S (1983). Prostaglandine und Antigestagene für den Schwangerschaftsabbruch (Prostaglandins and antigestagens for pregnancy termination). German Patent DE 3337450 12; Van Look P, Bygdeman M (1989). Antiprogestational steroids: a new dimension in human fertility regulation. Oxford reviews of reproductive medicine 11: 2-60).
Pregnant guinea pigs were treated on days 43 and 44 of pregnancy and observed until day 50 of gestation. For the effects of various treatments see table 1 and FIG. 2. It is typical for this model that expulsions occur with a delay of several days after treatment. It can be seen that Mesoprogestins have a much reduced abortifacient activity compared to RU486. […] The differences with respect to abortifacient activity seem qualitative ones. It is not possible to overcome the low abortifacient activity of a Mesoprogestin by the use of a higher dose.

The test system of a further experiment is pregnant rats. The experiment can be described thus: Abortifacient activity in pregnant rats. It is filed as in vivo, rat. Particulars: treatment days 5-7 of pregnancy, autopsy day 9; * SAS, probit procedure.
Description: as §1

Setting [2] is: dose range 0.003-100 mg/rabbit s.c.

Where only a bound is given, the exact number is not on record here.

Regarding `CCSC(=O)O/N=C/c1ccc([C@H]2C[C@@]3(C)[C@@H](CC[C@]3(COC)OC)[C@@H]3CCC4=CC(=O)CCC4=C32)cc1` [Compound J1042, 4-[17β-Methoxy-17α-(methoxymethyl)-3-oxoestra-4,9-dien-11β-yl]benzaldehyd-(1E)-[O-(ethylthio)carbonyl]oxim], the “progestagenic effect compared with maximum effect of progesterone” value in experiment [1] (setting [2]) is “Neither mesoprogestin tested (J 1042, J867, J956) reached the maximum effect of progesterone”. In the experiment with pregnant guinea pigs, the “abortifacient activity ED50, guinea pig” value is recorded as >>100 mg/animal/day, s.c and the maximal abortion rate was found to be 20%. Further, the “abortifacient activity ED50, Rat” value in the experiment with pregnant rats is listed as >10 mg/animal/day, s.c.
Consider `CN(C)c1ccc([C@H]2C[C@]3(C)[C@@H](CC[C@]3(O)CCCO)[C@@H]3CCC4=CC(=O)CCC4=C32)cc1` [Onapristone, onapristone, reference compound], for which, in the experiment on pregnant guinea pigs, the “abortifacient activity ED50, guinea pig” value is reported as “ca 3 mg/animal/day, s.c”. Moreover, the “abortifacient activity ED50, Rat” value with pregnant rats is on record as 1.71* mg/animal/day, s.c.
`CC#C[C@]1(O)CC[C@H]2[C@@H]3CCC4=CC(=O)CCC4=C3[C@@H](c3ccc(N(C)C)cc3)C[C@@]21C` [RU 486, reference compound]: the “abortifacient activity ED50, guinea pig” value in the experiment with pregnant guinea pigs is recorded as 3.8 mg/animal/day, s.c. The “abortifacient activity ED50, Rat” value in the experiment with pregnant rats was 0.98* mg/animal/day, s.c.
Take `CC(=O)[C@H]1CC[C@H]2[C@@H]3CCC4=CC(=O)CC[C@]4(C)[C@H]3CC[C@]12C` [Progesterone, progesterone]: the “dose inducing endometrial transformation” value in experiment [1] (4 days s.c.) is listed as not below 0.1 mg. Also, the “maximum effect, McPhail score” value in experiment [1] is approximately 4.
With `COC[C@]1(OC)CC[C@H]2[C@@H]3CCC4=CC(=O)CCC4=C3[C@@H](c3ccc(/C=N/O)cc3)C[C@@]21C` [Compound J867, 4-[17βMethoxy-17α-(methoxymethyl)-3-oxoestra-4,9-dien-11β-yl]benzaldehyd-(1E)-oxim], in experiment [1] (setting [2]), the “progestagenic effect compared with maximum effect of progesterone” value is reported as “Neither mesoprogestin tested (J 1042, J867, J956) reached the maximum effect of progesterone”. In the experiment on pregnant guinea pigs, the “abortifacient activity ED50, guinea pig” value was >100 mg/animal/day, s.c and the maximal abortion rate amounted to 20%. In addition, the “abortifacient activity ED50, Rat” value in the experiment with pregnant rats is listed as 0.65* mg/animal/day, s.c.
Turning to `COCC1(O)CCC2C3CCC4=CC(=O)CCC4=C3C(c3ccc(C=NO)cc3)CC21C` (stereo not drawn) [Compound J912, 4-[17β-Hydroxy-17α-(methoxymethyl)-3-oxoestra-4,9-dien-11β-yl]benzaldehyd-(1E)-oxim], in the experiment with pregnant guinea pigs, the “abortifacient activity ED50, guinea pig” value was >100 mg/animal/day, s.c and the maximal abortion rate is on record as 20%. Besides, the “abortifacient activity ED50, Rat” value with pregnant rats is listed as 0.36 mg/animal/day, s.c.
Take `CCNC(=O)O/N=C/c1ccc([C@H]2C[C@@]3(C)[C@@H](CC[C@]3(COC)OC)[C@@H]3CCC4=CC(=O)CCC4=C32)cc1` [Compound J956, 4-[17β-Methoxy-17α-(methoxymethyl)-3-oxoestra-4,9-dien-11β-yl]benzaldehyd-(1E)-[O-(ethylamino)carbonyl]oxim]: in experiment [1], the “maximum effect, McPhail score” value is given as 1.5. Further, in experiment [1] (setting [2]), the “progestagenic effect compared with maximum effect of progesterone” value is given as “Neither mesoprogestin tested (J 1042, J867, J956) reached the maximum effect of progesterone” and the “shape of dose response” value is recorded as “biphasic response”. Further, in the experiment on pregnant guinea pigs, the “abortifacient activity ED50, guinea pig” value is 20 mg/animal/day, s.c and the maximal abortion rate is on record as 20%. Besides, in the experiment on pregnant rats, the “abortifacient activity ED50, Rat” value is 0.64* mg/animal/day, s.c.

The values are drawn from US7629334B1, “Mesoprogrestins (progesterone receptor modulations) as a component of compositions for hormone replacement therapy (HRT)” (Bayer Schering Pharma Aktiengesellschaft, priority 1999, dated 2009).
